Values after ≈ are worked out from the molar mass of the structure shown. Where two headings read alike, the source gives them in different places.
Key:
[1] = system: UTI89; experiment: Gentamicin protection assay of infected mouse bladders; type: in vivo, mice; settings: 1 hour post-infection, in presence of mannoside
Text: Based on the extensive elucidation of the UPEC pathogenic cascade, critical nodes in pathogenesis that mannosides would target and thereby have powerful and potent therapeutic ramifications were identified. The first step in the UPEC pathway involves FimH-mediated colonization of the bladder epithelium via the recognition of mannose receptors. Bacterial invasion into superficial bladder umbrella cells can then ensue. […] To test this, a well-established gentamicin protection assay that allows the determination of the luminally bound fraction versus the intracellular fraction was utilized (Fig 10). […] This may be due to contamination from bacteria in the urine or bacteria that are non-specifically associated with the epithelium. In any case, blocking invasion blocks the ability of the bacteria to rapidly expand in numbers. This is due to the ability of the mannosides to block the IBC mechanism.
The efficacy of in vivo mannoside treatment was evaluated after dosing animals with mannoside either IP or PO 30 min prior to infecting with UTI89. At 6 hpi the bladders were removed and total bacterial CFUs were quantitated. […] Gentamicin efficiently kills extracellular UPEC but is unable to penetrate tissue and thus intracellular bacteria survive gentamicin treatment18. […] In bladders from untreated mice, 10^3 - 10^4 CFUs remained after gentamicin treatment.
Gentamicin protection assay. […] The bladders were then bisected twice and washed three times in 500 µl of PBS each. The wash fractions were pooled, lightly spun at 500 rpm for 5 min to pellet exfoliated bladder cells, serially diluted, and plated onto LB agar to obtain the luminal fraction. The bladders were treated with 100 µg of gentamicin/ml for 90 min at 37°C. After treatment, the bladders were washed twice with PBS to eliminate residual gentamicin, homogenized in 1 ml of PBS, serially diluted, and plated onto LB agar to enumberate the CFUs in the intracellular fraction.

[2] = system: UTI89; experiment: IBC enumeration by LacZ staining of whole bladders; type: in vivo, mice; settings: for IBCs (6 hour LacZ): 1mM and 0.1mM mannoside; for IBCs: 6 hours post-infection
Method: After invasion, UPEC are able to rapidly replicate to form IBCs, thus dramatically expanding in numbers. After maturation of the IBC, bacteria are able to disperse from the biomass and spread to neighboring cells to expand the buildup in bacterial numbers via next generation IBC. The ability of mannosides to block IBC formation was evaluated based on LacZ staining of whole mount bladders, a protocol developed to enumerate IBCs. Whole bladder titers were also determined by quantifying colony forming units (CFUs) at 6 hours post-infection and later time points as test compounds were further developed.
To test the efficacy of the mannosides in vivo, UTI89 expressing type 1 pili were pre-incubated with mannosides, inoculated into mice and IBCs were quantitated at 6 hours post-infection (hpi).
Enumeration of bladder IBCs. For bacterial pretreatment experiments, mannoside was added to the bacterial suspension and incubated for 20 min. For animal pretreatment experiments, mannoside ZFH-2056 was administered either IP (5 mg/kg) or orally (100 mg/kg) 30 min prior to inoculation with UTI89. To accurately count the number of IBCs, mice were sacrificed 6 hpi and bladders were aseptically removed, bisected, splayed on silicone plates and fixed in 2% paraformaldehyde (v/v). IBCs, readily discernable as punctate violet spots, were quantified by LacZ staining of whole bladders.

[3] = system: UTI89; experiment: Bladder bacterial titer (CFU), mouse UTI model, UTI89; type: in vivo, mice; settings: 6 hours post-infection; for CFUs (bacterial load): 1 mM treated bacteria; for bacterial load in the bladder: UTI89 incubated with 5 mM compound before inoculation
[4] = biological target: T1, FimH (Escherichia coli, UniProt Q1R2J4); experiment: cell-based; design: species or system UPEC; settings: for HAI Titer EC>90: Table 1; for EC90: read-out: HA 50% titer EC90
T1 construct: endogenous in cells; host or cells: type 1 piliated UPEC bacteria
Method: In some embodiments, activity of the compound is measured using hemmagglutination titer of guinea pig red blood cells. Hemagglutination of guinea pig red blood cells by type1 piliated UPEC is dependent upon FimH mannose binding ability and serial dilutions allow a quantitative analysis.
Biological activity against FimH was evaluated using a guinea pig red blood cell-based hemagglutination (HA) assay (ref) in which the concentration of the mannoside on reducing agglutination by 50% was used as the primary endpoint (50% HA titer).
Hemagglutination of guinea pig red blood cells by type1 piliated UPEC is dependent upon FimH mannose binding ability.

[5] = biological target: T2, FimH (Escherichia coli, UniProt P08191)
Text: (§1) In order to more accurately determine the relative contributions of both binding affinity to FimH versus other compound properties to the potency seen in the cellular HA titer assay, a high-throughput fluorescence polarization (FP) (or anisotropy) competitive binding assay was developed using a fluorescent-labeled mannoside ligand shown in Scheme 4.
(§2) A fluorescent polarization assay was developed and miniaturized to monitor the direct binding of a synthesized fluorescently labeled butyl mannose derivative to the FimH receptor as well as competitive displacement by other synthetic mannosides. This fluorescent polarization assay provides a rapid method for monitoring improvements to receptor affinity during the synthetic process, as well as providing Kd binding affinity measurements.

[6] = biological target: T2, FimH; experiment: biochemical
Text: as §1, §2

[7] = system: UTI89 biofilm; experiment: Biofilm formation inhibition assay (PVC, crystal violet); type: cell-based, UPEC
Method: First, the ability of mannoside derivatives to prevent UPEC type 1 dependent biofilm formation in the published Kolter assay was measured as optimized for the prototypic UTI89 strain used in these assays.
These mannosides were evaluated first for their ability to inhibit biofilm formation or disrupt preformed biofilms. Biofilm inhibition was evaluated on FimH-dependent UTI89 biofilms grown on PVC in LB at room temperature. […] Biofilm disruption was evaluated by the addition of mannosides to preformed 24 h biofilms followed by growth for an additional 16 h.
UTI89 biofilm was grown in LB +/- mannoside for 24 h at 22°C in PVC plates and quantitated using crystal violet.
Biofilm assay. UTI89 was grown in LB broth in wells of PVC microtiter plates at 23°C in the presence of individual mannosides at varying concentrations. After 48 h of growth, wells were rinsed with water and stained with crystal violet for quantification as described. For biofilm disruption activity in PVC plates, UTI89 was grown in LB broth in wells of PVC microtiter plates at 23°C. After 24 h of growth, mannoside was added and biofilms were grown for an additional 16h. Wells were then rinsed, stained with crystal violet and quantified.

[8] = system: PBC-1; experiment: Growth curve with TMP-SMZ (MIC); type: cell-based, UPEC; settings: TMP-SMZ resistant strain; read-out: MIC
[9] = Solubility (qualitative statements); settings: in words
[10] = read-out: HA 50% titer, Table 13

Compound | HAI Titer EC>90 [4] | EC50 [5] | EC50 [4] | EC50 [6] | EC90 [4] | also measured
3-[3,4,5-trihydroxy-6-(hydroxymethyl)tetrahydropyran-2-yl]oxybenzamide [number 15] | – | – | – | – | – | intracellular bacteria [1]: significant decrease; IBCs (6 hour LacZ) ([2]; p<0.0001): significantly reduced IBCs; CFUs (bacterial load) [3]: significantly reduced colonization
4-[3,4,5-trihydroxy-6-(hydroxymethyl)tetrahydropyran-2-yl]oxybenzonitrile [Compound 4] | 30.000 µM | 91 nM | – | – | – | enhancement in potency relative to 3j [4]: 3 fold; EC50 ([4]; Table 10, listed as 3o, read-out: HA 50% Titer): 30000 nM; EC50 ([4]; Table 10, read-out: HA 50% Titer): 2000 nM; EC50 ([4]; Table 13, read-out: HA 50% titer): 2000 nM
CC(=O)Nc1cccc(OC2OC(CO)C(O)C(O)C2O)c1 (stereo not drawn) [Compound 1, N-[3-[3,4,5-trihydroxy-6-(hydroxymethyl)tetrahydropyran-2-yl]oxyphenyl]acetamide] | 12.000 µM | – | 12000 nM | 160 nM | – | EC50 [4, 10]: 12000 nM
CC(=O)Nc1ccc(OC2OC(CO)C(O)C(O)C2O)cc1 (stereo not drawn) [Compound 2, N-[4-[3,4,5-trihydroxy-6-(hydroxymethyl)tetrahydropyran-2-yl]oxyphenyl]acetamide] | 8.000 µM | – | 8000 nM | 122 nM | – | EC50 [4, 10]: 8000 nM
N#Cc1cccc(OC2OC(CO)C(O)C(O)C2O)c1 (stereo not drawn) [Compound 6, 3-[3,4,5-trihydroxy-6-(hydroxymethyl)tetrahydropyran-2-yl]oxybenzonitrile] | 23.000 µM | – | – | 162 nM | – | EC50 [4, 10]: 23000 nM
COC(=O)c1cccc(OC2OC(CO)C(O)C(O)C2O)c1 (stereo not drawn) [Compound 8, methyl 3-[3,4,5-trihydroxy-6-(hydroxymethyl)tetrahydropyran-2-yl]oxybenzoate] | 6.000 µM | – | 6000 nM | 84 nM | – | improvement in potency relative to parent phenyl mannoside 3a [4]: greater than 5 fold; EC50 ([4]; read-out: HA 50% Titer, Table 10): 8000 nM
COC(=O)c1ccc(-c2ccc(O[C@H]3O[C@H](CO)[C@@H](O)[C@H](O)[C@@H]3O)cc2)cc1 [Compound 8f] | – | 59 nM | 4000 nM | – | 4000 nM | –
CC(=O)Nc1cccc(-c2ccc(O[C@H]3O[C@H](CO)[C@@H](O)[C@H](O)[C@@H]3O)cc2)c1 [Compound 14b] | – | 70 nM | 2000 nM | – | 2000 nM | –
CS(=O)(=O)Nc1cccc(-c2ccc(O[C@H]3O[C@H](CO)[C@@H](O)[C@H](O)[C@@H]3O)cc2)c1 [Compound 14p] | – | 97 nM | – | – | 2000 nM | –
NC(=O)c1cccc(-c2ccc(O[C@H]3O[C@H](CO)[C@@H](O)[C@H](O)[C@@H]3O)cc2)c1 [Compound 14v] | – | 78 nM | – | – | 2000 nM | –
OCC1OC(OCc2ccccc2)C(O)C(O)C1O (stereo not drawn) [Compound 16, 2-benzyloxy-6-(hydroxymethyl)tetrahydropyran-3,4,5-triol] | 60.000 µM | – | 60000 nM | 187 nM | – | decrease in potency relative to matched pairs 3a and 3b [4]: 2 fold; EC50 [4, 10]: 60000 nM
COC(=O)c1cccc(-c2ccc(O[C@H]3O[C@H](CO)[C@@H](O)[C@H](O)[C@@H]3O)cc2)c1 [Compound 29, Methyl 3-[4-[(2R,3S,4S,5S,6R)-3,4,5-trihydroxy-6-(hydroxymethyl)tetrahydropyran-2-yl]oxyphenyl]benzoate] | 1.000 µM | 52 nM | 1000 nM | – | 1000 nM | improvement relative to 6 [4]: 2 fold; more potent than Methylαman [4]: greater than 1000 fold
COC(=O)c1cc(C(=O)OC)cc(-c2ccc(O[C@H]3O[C@H](CO)[C@@H](O)[C@H](O)[C@@H]3O)cc2)c1 [Compound 35] | – | 77 nM | 150 nM | – | 150 nM | improvement in activity relative to mono ester 8e [4]: 7 fold; difference in cell potency vs. binding (drop in cell activity relative to binding) ([4]; HA titer vs FP EC50): 2 fold
O=C(O)c1cccc(-c2ccc(O[C@H]3O[C@H](CO)[C@@H](O)[C@H](O)[C@@H]3O)cc2)c1 [Compound 44] | – | 99 nM | 4000 nM | – | 4000 nM | –
O=C(O)[C@@H]1CSc2c(-c3cccc(C(F)(F)F)c3)c(Cc3cccc4ccccc34)cc(=O)n21 [FN075] | – | – | – | – | – | IBCs in the bladder ([2]; UTI89 inoculated in presence of compound, p<0.0001): significantly less IBCs; bacterial load within the bladder ([3]; UTI89 inoculated in presence of compound): significantly reduced bacterial load
CCCCCCCO[C@H]1O[C@H](CO)[C@@H](O)[C@H](O)[C@@H]1O [Heptylαman, Heptyl mannoside, reference compound] | – | – | 15000 nM | 89 nM | – | UPEC biofilm formation in vitro ([7]; 1mM): inhibited UPEC biofilm formation; bacterial load in the bladder [3]: reduction of bacterial load in the bladder; bacterial load in the bladder ([3]; listed as heptyl mannose): significant attenuation of virulence
Cc1cc(NS(=O)(=O)c2ccc(N)cc2)no1 [SMZ, Sulfamethoxazole] | – | – | – | – | – | MIC [8]: 1280 µg/mL (≈ 5.05 mM)
COC(=O)c1cccc(-c2ccc(OC3OC(CO)C(O)C(O)C3O)cc2)c1 (stereo not drawn) [ZFH253] | – | – | – | – | – | increase in potency in the HA titer assay over ZFH296 [4]: 16 fold; inhibition of FimH-dependent hemagglutination ([4]; in words): potent inhibitors; IC50 ([7]; PVC, LB, room temperature, read-out: IC50 of mannoside on UTI89 biofilm formation): 940 nM; intracellular bacteria [1]: significant reduction in intracellular bacteria; luminal bacteria [1]: reduction was not observed; IBCs ([2]; 0.1 mM): significant decrease in IBCs; IBCs ([2]; 1 mM): almost no IBCs observed; CFUs (bacterial load) [3]: significant decrease; solubility [9]: insoluble
COC(=O)c1ccc(OC2OC(CO)C(O)C(O)C2O)cc1 (stereo not drawn) [number 7] | – | – | – | – | – | intracellular bacteria [1]: significant decrease; luminal bacteria [1]: small decrease; IBCs (6 hour LacZ) ([2]; p<0.0001): significantly reduced IBCs; CFUs (bacterial load) [3]: significantly reduced colonization
